Like-named read-outs stand apart in the source and are kept apart here.
Test system: HCT116 MTAP-deleted cell lines
Assay: Cell viability assay (CellTiter-Glo, 7 days), HCT116 MTAP-deleted
Assay type: cell-based
Details: Homo sapiens, HCT-116, HCT116 MTAP-deleted, class symbols, read-out: CC50
How it was run: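 First, compounds are serially diluted in DMSO and dispensed into plates, which are frozen until seeding. Next, cells are added and incubated 7 days at 37 °C, 5% CO2, 90% humidity. Finally, CellTiter-Glo reagent is added and luminescence is measured to derive CC50.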

SMILES	CC50 (cell viability assay) [nM]	CC50 (cell viability) [nM]
Cc1ncc2c(N)nc3cc(F)c(C(=O)N4CC[C@H]5C[C@@H]4c4ccc(C(F)(F)F)nc4O5)cc3n12 [Ff-627, (4-amino-7-fluoro-1-methylimidazo[1,5-a]quinoxalin-8-yl)((2S,6R)-9-(trifluoromethyl)-3,4-dihydro-2H-2,6-methanopyrido[2,3-b][1,5]oxazocin-5(6H)-yl)methanone]	< 100	
Cc1ncc2c(N)nc3cc(F)c(C(=O)N(Cc4ccc(C(F)(F)F)cn4)C4(C)CC4)cc3n12 [Ff-589, 4-amino-7-fluoro-1-methyl-N-(1-methylcyclopropyl)-N-((5-(trifluoromethyl)pyridin-2-yl)methyl)imidazo[1,5-a]quinoxaline-8-carboxamide]	< 100	
COC1(C#Cc2ccc3c(c2)OC[C@H]3N(C)C(=O)c2cc3c(cc2F)nc(N)c2cncn23)CCC1 [Ff-517, (S)-4-amino-7-fluoro-N-(6-((1-methoxycyclobutyl)ethynyl)-2,3-dihydrobenzofuran-3-yl)-N-methylimidazo[1,5-a]quinoxaline-8-carboxamide]	100 to 1000	
Cc1ncc2c(N)nc3cnc(C(=O)N4CCC[C@@H]5Oc6cc(C(F)(F)F)c(F)cc6[C@@H]54)cc3n12 [Ff-108, (4-amino-1-methylimidazo[1,5-a]pyrido[3,4-e]pyrazin-8-yl)((4aS,9bS)-8-fluoro-7-(trifluoromethyl)-3,4,4a,9b-tetrahydrobenzofuro[3,2-b]pyridin-1(2H)-yl)methanone]		< 100
Nc1nc2ccc(C(=O)N3CC[C@H]4C[C@@H]3c3ccc(C(F)(F)F)cc3O4)cc2n2cncc12 [Ff-510, (4-aminoimidazo[1,5-a]quinoxalin-8-yl)((2S,6R)-9-(trifluoromethyl)-3,4-dihydro-2H-2,6-methanobenzo[b][1,5]oxazocin-5(6H)-yl)methanone]	< 100	
Cc1nn(C)cc1N(Cc1ccc(C(F)(F)F)cc1F)C(=O)c1cc2c(cc1F)nc(N)c1cncn12 [Ff-413, 4-amino-N-(1,3-dimethylpyrazol-4-yl)-7-fluoro-N-[[2-fluoro-4-(trifluoromethyl)phenyl]methyl]imidazo[1,5-a]quinoxaline-8-carboxamide]	< 100	
Nc1nc2cnc(C(=O)N3CCCC[C@@H]3c3ccc(C(F)(F)F)cc3)cc2n2cncc12 [Ff-87, (R)-(4-aminoimidazo[1,5-a]pyrido[3,4-e]pyrazin-8-yl)(2-(4-(trifluoromethyl)phenyl)piperidin-1-yl)methanone]		< 100
CN(C(=O)c1cc2c(cc1F)nc(N)c1cncn12)C1COc2c1ccc(C(F)(F)F)c2Cl (stereo not shown) [Ff-158, 4-amino-N-(7-chloro-6-(trifluoromethyl)-2,3-dihydrobenzofuran-3-yl)-7-fluoro-N-methylimidazo[1,5-a]quinoxaline-8-carboxamide]		< 100
Nc1nc2cc(F)c(C(=O)N3CCO[C@@H]4Cc5cc(Br)ccc5[C@@H]43)cc2n2cncc12 (single isomer, unassigned) [Ff-76]		< 100
C[C@@H]1OC[C@@H](N(C)C(=O)c2ccc3nc(N)c4cncn4c3c2)c2ccc(C(F)(F)F)cc21 (racemic) [Ff-41, Trans-4-amino-N-methyl-N-(trans-1-methyl-7-(trifluoromethyl)isochroman-4-yl)imidazo[1,5-a]quinoxaline-8-carboxamide]		< 100
CN(C(=O)c1cc2c(cc1F)nc(N)c1cncn12)[C@@H]1c2ccc(Br)cc2[C@@H]2C[C@H]12 [Ff-312, 4-amino-N-((1aR,6S,6aS)-3-bromo-1,1a,6,6a-tetrahydrocyclopropa[a]inden-6-yl)-7-fluoro-N-methylimidazo[1,5-a]quinoxaline-8-carboxamide]		100 to 1000
Nc1nc2cc(F)c(C(=O)N(Cc3ccc(C(F)(F)F)cn3)c3cnn4ccccc34)cc2n2cncc12 [Ff-423, 4-amino-7-fluoro-N-pyrazolo[1,5-a]pyridin-3-yl-N-[[5-(trifluoromethyl)-2-pyridyl]methyl]imidazo[1,5-a]quinoxaline-8-carboxamide]	< 100	
CN(C(=O)c1cc2c(cc1F)nc(N)c1cncn12)[C@@H]1COc2cc(OC(F)(F)F)ccc21 (single isomer, unassigned) [Ff-557]	< 100	
CN(C(=O)c1cc2c(cc1F)nc(N)c1cncn12)[C@@H]1COc2cc(C#CC3(CC#N)CC3)ccc21 [Ff-441, 4-amino-N-[(3S)-6-[2-[1-(cyanomethyl)cyclopropyl]ethynyl]-2,3-dihydrobenzofuran-3-yl]-7-fluoro-N-methyl-imidazo[1,5-a]quinoxaline-8-carboxamide]	< 100	
Cc1ncn2c1c(N)nc1cc(F)c(C(=O)N(C)C3CCc4nc(C(F)(F)F)ccc43)cc12 (stereo not shown) [Ff-68, 4-amino-7-fluoro-N,3-dimethyl-N-(2-(trifluoromethyl)-6,7-dihydro-5H-cyclopenta[b]pyridin-5-yl)imidazo[1,5-a]quinoxaline-8-carboxamide]		< 100
Cc1ncn2c1c(N)nc1cnc(C(=O)N3CCC[C@@H]4Oc5c(ccc(OC(F)(F)F)c5F)[C@@H]43)cc12 [Fg-62, (4-amino-3-methylimidazo[1,5-a]pyrido[3,4-e]pyrazin-8-yl)((4aS,9bS)-6-fluoro-7-(trifluoromethoxy)-3,4,4a,9b-tetrahydrobenzofuro[3,2-b]pyridin-1(2H)-yl)methanone]	< 100	

SMILES	CC50 (cell viability assay) [nM]	CC50 (cell viability) [nM]
Cc1ncc2c3cc(C(=O)N(Cc4ccc(C(F)(F)F)cn4)[C@H](C)c4ncccn4)c(F)cc3nc(N)n12 [Fg-17, (R)-5-amino-8-fluoro-3-methyl-N-(1-(pyrimidin-2-yl)ethyl)-N-((5-(trifluoromethyl)pyridin-2-yl)methyl)imidazo[1,5-c]quinazoline-9-carboxamide]	< 100	
Cc1ncn2c1c(N)nc1cnc(C(=O)N(C)[C@@H]3COc4cc(C56CC(C5)C6)ccc43)cc12 [Ff-452, (S)-4-amino-N-(6-(bicyclo[1.1.1]pentan-1-yl)-2,3-dihydrobenzofuran-3-yl)-N,3-dimethylimidazo[1,5-a]pyrido[3,4-e]pyrazine-8-carboxamide]	< 100	
CN(C(=O)c1cc2c(cc1F)nc(N)c1cncn12)[C@@H]1COc2cc(C#CC3C4COCC34)ccc21 (stereo partly drawn) [Ff-524, N-((3S)-6-((3-oxabicyclo[3.1.0]hexan-6-yl)ethynyl)-2,3-dihydrobenzofuran-3-yl)-4-amino-7-fluoro-N-methylimidazo[1,5-a]quinoxaline-8-carboxamide]	< 100	
Nc1nc2cc(F)c(C(=O)N3CCO[C@H]4Cc5cc(C(F)(F)F)ccc5[C@H]43)cc2n2cncc12 (single isomer, unassigned) [Ff-83]		100 to 1000
Cc1ncc2c(N)nc3ccc(C(=O)N4CCC5(CC4)C(=O)Nc4ccccc45)cc3n12 [Ff-65, 1′-(4-amino-1-methylimidazo[1,5-a]quinoxaline-8-carbonyl)spiro[indoline-3,4′-piperidin]-2-one]		> 1000
C[C@@H]1CN(C(=O)c2cc3c(cn2)nc(N)c2cncn23)[C@H]2c3ccc(OC(F)(F)F)c(F)c3C[C@H]2O1 (single isomer, unassigned) [Ff-193]		100 to 1000
CN(C(=O)c1cc2c(cc1F)nc(N)c1cncn12)[C@H]1c2ccc(-c3cnn(C(F)F)c3)cc2C[C@H]1OC(F)F [Ff-583, 4-amino-N-((1S,2R)-2-(difluoromethoxy)-5-(1-(difluoromethyl)-1H-pyrazol-4-yl)-2,3-dihydro-1H-inden-1-yl)-7-fluoro-N-methylimidazo[1,5-a]quinoxaline-8-carboxamide]	100 to 1000	
CN(C(=O)c1ccc2nc(N)c3cncn3c2c1)[C@@H]1COc2cc(C#CC(C)(C)S(C)(=O)=O)ccc21 [Ff-526, (S)-4-amino-N-methyl-N-(6-(3-methyl-3-(methylsulfonyl)but-1-yn-1-yl)-2,3-dihydrobenzofuran-3-yl)imidazo[1,5-a]quinoxaline-8-carboxamide]	100 to 1000	
CN(C(=O)c1cc2c(cc1C#N)nc(N)c1cncn12)[C@@H]1COc2cc(OC(F)(F)F)ccc21 [Ff-561, (S)-4-amino-7-cyano-N-methyl-N-(6-(trifluoromethoxy)-2,3-dihydrobenzofuran-3-yl)imidazo[1,5-a]quinoxaline-8-carboxamide]	< 100	
COc1nn(C)cc1N(Cc1ccc(C(F)(F)F)cc1F)C(=O)c1cc2c(cc1F)nc(N)c1cncn12 [Ff-422, 4-amino-7-fluoro-N-[[2-fluoro-4-(trifluoromethyl)phenyl]methyl]-N-(3-methoxy-1-methyl-pyrazol-4-yl)imidazo[1,5-a]quinoxaline-8-carboxamide]	< 100	
Nc1nc2ccc(C(=O)N3CCC[C@@H]4Oc5c(ccc(OC(F)(F)F)c5F)[C@@H]43)cc2n2cncc12 [Ff-381, (4-aminoimidazo[1,5-a]quinoxalin-8-yl)((4aS,9bS)-6-fluoro-7-(trifluoromethoxy)-3,4,4a,9b-tetrahydrobenzofuro[3,2-b]pyridin-1(2H)-yl)methanone]	< 100	
CN(C(=O)c1cc2c(cc1F)nc(N)c1cncn12)C1COc2cc(Br)c(Cl)cc21 (stereo not shown) [Ff-609, 4-amino-N-(6-bromo-5-chloro-2,3-dihydrobenzofuran-3-yl)-7-fluoro-N-methylimidazo[1,5-a]quinoxaline-8-carboxamide]	< 100	
COc1cc(C(F)(F)F)ccc1CN(C)C(=O)c1ccc2nc(N)c3cncn3c2c1 [Ff-125, 4-amino-N-(2-methoxy-4-(trifluoromethyl)benzyl)-N-methylimidazo[1,5-a]quinoxaline-8-carboxamide]		100 to 1000
CN(Cc1nc(-c2cnn(C(F)(F)F)c2)cs1)C(=O)c1cc2c(cc1F)nc(N)c1cncn12 [Ff-550, 4-amino-7-fluoro-N-methyl-N-((4-(1-(trifluoromethyl)-1H-pyrazol-4-yl)thiazol-2-yl)methyl)imidazo[1,5-a]quinoxaline-8-carboxamide]	100 to 1000	
Nc1nc2cc(F)c(C(=O)N3CCOC[C@@H]3c3ccc(C(F)(F)F)cc3)cc2n2cncc12 [Ff-38, (S)-(4-amino-7-fluoroimidazo[1,5-a]quinoxalin-8-yl)(3-(4-(trifluoromethyl)phenyl)morpholino)methanone]		< 100

Reference: patent publication US12448388B2, “PRMT5 inhibitors and uses thereof” (Gilead Sciences, Inc., priority 2023, dated 2025)
